Results taken from patent publication US11053204B2, “Pyrimidinyloxy benzene derivatives as herbicides” (FMC Corporation, priority 2015, dated 2021).

What was measured:
Assay type in all cases: in vivo
[1] = system: rice (Oryza sativa); test: Test B flooded paddy test, plant response rating; settings: 250 g ai/ha; Flood; scale of 0 to 100 where 0 is no effect and 100 is complete control; 13 to 15 days
Procedure, shortened: (§1)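 Compound was added to standing water 3 cm above soil, flood maintained, and plants held in a greenhouse before visual scoring against controls at 13 to 15 days.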

[2] = system: ducksalad (Heteranthera limosa); test: Test B flooded paddy test, plant response rating; settings: 250 g ai/ha; Flood; scale of 0 to 100 where 0 is no effect and 100 is complete control; 13 to 15 days
Procedure, shortened: as §1

[3] = system: barnyardgrass (Echinochloa crus-galli); test: Test B flooded paddy test, plant response rating; settings: 250 g ai/ha; Flood; scale of 0 to 100 where 0 is no effect and 100 is complete control; 13 to 15 days
Procedure, shortened: as §1

[4] = system: sedge, umbrella (small-flower umbrella sedge, Cyperus difformis); test: Test B flooded paddy test, plant response rating; settings: 250 g ai/ha; Flood; scale of 0 to 100 where 0 is no effect and 100 is complete control; 13 to 15 days
Procedure, shortened: as §1

[5] = system: Italian ryegrass (Lolium multiflorum); test: Test A postemergence, visual injury rating; settings: for Ryegrass, Italian plant response rating (0 to 100 scale): 500 g ai/ha
Procedure, shortened: (§2)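 Visual injury scored 0–100 (100 = complete control) against untreated controls about 10 days after treatment in a greenhouse. Test chemicals, formulated with surfactant in non-phytotoxic solvent, were sprayed on soil preemergence or on 2-10 cm, one- to two-leaf plants postemergence.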

[6] = system: wheat (Triticum aestivum); test: Test A postemergence, visual injury rating; settings: for Wheat plant response rating (0 to 100 scale): 500 g ai/ha
Procedure, shortened: as §2

[7] = system: ragweed (common ragweed, Ambrosia elatior); test: Test A postemergence, visual injury rating; settings: for Ragweed plant response rating (0 to 100 scale): 500 g ai/ha
Procedure, shortened: as §2

[8] = system: galium (catchweed bedstraw, Galium aparine); test: Test A postemergence, visual injury rating; settings: for Galium plant response rating (0 to 100 scale): 500 g ai/ha
Procedure, shortened: as §2

[9] = system: kochia (Kochia scoparia); test: Test A postemergence, visual injury rating; settings: for Kochia plant response rating (0 to 100 scale): 500 g ai/ha
Procedure, shortened: as §2

[10] = system: barnyardgrass (Echinochloa crus-galli); test: Test A postemergence, visual injury rating; settings: 0 is no effect, 100 is complete control; for Barnyardgrass plant response rating: 0 to 100 scale, approximately 10 days; for Barnyardgrass plant response rating (0 to 100 scale): 500 g ai/ha
Procedure, shortened: as §2

[11] = system: pigweed (Amaranthus retroflexus); test: Test A postemergence, visual injury rating; settings: for Pigweed plant response rating (0 to 100 scale): 500 g ai/ha
Procedure, shortened: as §2

[12] = system: blackgrass (Alopecurus myosuroides); test: Test A postemergence, visual injury rating; settings: for Blackgrass plant response rating (0 to 100 scale): 500 g ai/ha
Procedure, shortened: as §2

[13] = system: giant foxtail (Setaria faberii); test: Test A postemergence, visual injury rating; settings: for Foxtail, Giant plant response rating (0 to 100 scale): 500 g ai/ha
Procedure, shortened: as §2

[14] = system: corn (Zea mays); test: Test A postemergence, visual injury rating; settings: for Corn plant response rating (0 to 100 scale): 500 g ai/ha
Procedure, shortened: as §2

[15] = system: kochia (Kochia scoparia); test: Test A preemergence, visual injury rating; settings: for Kochia plant response rating: 500 g ai/ha
Procedure, shortened: as §2

[16] = system: pigweed (Amaranthus retroflexus); test: Test A preemergence, visual injury rating; settings: for Pigweed plant response rating: 500 g ai/ha
Procedure, shortened: as §2

[17] = system: chickweed (common chickweed, Stellaria media); test: Test C postemergence, plant response rating; settings: for Chickweed plant response rating: scale 0 to 100 (0 no effect, 100 complete control)
Procedure, shortened: (§3)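 Greenhouse plants rated visually against untreated controls 13–15 d after treatment, scale 0 = no effect to 100 = complete control. Postemergence sprays went onto potted plants 2–18 cm tall (1–4 leaves); preemergence sprays onto soil freshly sown in loam–sand or silt loam, chemicals formulated in non-phytotoxic solvent with surfactant.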

[18] = system: kochia (Kochia scoparia); test: Test C postemergence, plant response rating; settings: for Kochia plant response rating: scale 0 to 100 (0 no effect, 100 complete control)
Procedure, shortened: as §3

[19] = system: morningglory (Ipomoea coccinea); test: Test C postemergence, plant response rating; settings: for Morningglory plant response rating: scale 0 to 100 (0 no effect, 100 complete control)
Procedure, shortened: as §3

[20] = 125 g ai/ha, 0 to 100 scale, 0 is no effect, 100 is complete control, approximately 10 days
[21] = 0 is no effect, 100 is complete control
[22] = 125 g ai/ha, 0 to 100 scale (0 no effect, 100 complete control)
[23] = 0 to 100 scale (0 no effect, 100 complete control)
[24] = 31 g ai/ha, 0 to 100 scale (0 no effect, 100 complete control)
[25] = 31 g ai/ha, 0 to 100 scale, 0 no effect, 100 complete control

SMILES	Plant response rating, Rice [1]	Plant response rating, Ducksalad [2]	Plant response rating, Barnyardgrass [3]	Plant response rating, Sedge, Umbrella [4]	Ryegrass, Italian plant response rating [5, 20]	Wheat plant response rating [6, 20]	Ragweed plant response rating [7, 20]	Galium plant response rating [8, 20]	Kochia plant response rating [9, 20]	Barnyardgrass plant response rating ([10]; 125 g ai/ha)	Pigweed plant response rating [11, 20]	Blackgrass plant response rating [12, 20]	Foxtail, Giant plant response rating [13, 20]	Corn plant response rating [14, 20]	Plant response rating, Kochia [15, 22]	Plant response rating, Pigweed [16, 22]	Plant response rating, Chickweed ([17]; 16 g ai/ha, scale of 0 to 100)	Plant response rating, Chickweed ([17]; 31 g ai/ha, scale 0 to 100)	Chickweed plant response rating ([17]; 62 g ai/ha)	Chickweed plant response rating ([17]; 125 g ai/ha)	other results
CCCCC(=O)c1c(Oc2ncc(Cl)cn2)cccc1C(F)(F)F [Compound 130]	35	40	55	98	20	30	30	100	100	90	100	50	40	20	100	100	75	75	80	90	Ryegrass, Italian plant response rating (0 to 100 scale) [5, 21]: 90; Wheat plant response rating (0 to 100 scale) [6, 21]: 30; Ragweed plant response rating (0 to 100 scale) [7, 21]: 60; Galium plant response rating (0 to 100 scale) [8, 21]: 100; Kochia plant response rating (0 to 100 scale) [9, 21]: 100; Barnyardgrass plant response rating (0 to 100 scale) [10]: 100; Pigweed plant response rating (0 to 100 scale) [11, 21]: 100; Blackgrass plant response rating (0 to 100 scale) [12, 21]: 90; Foxtail, Giant plant response rating (0 to 100 scale) [13, 21]: 90; Corn plant response rating (0 to 100 scale) [14, 21]: 50; Kochia plant response rating [15, 23]: 100; Pigweed plant response rating [16, 23]: 100; Plant response rating, Kochia ([18]; 16 g ai/ha, scale of 0 to 100): 80; Plant response rating, Kochia ([18]; 31 g ai/ha, scale 0 to 100): 85; Kochia plant response rating ([18]; 62 g ai/ha): 95; Kochia plant response rating ([18]; 125 g ai/ha): 98; Plant response rating, Morningglory ([19]; 16 g ai/ha, scale of 0 to 100): 10; Plant response rating, Morningglory ([19]; 31 g ai/ha, scale 0 to 100): 25; Morningglory plant response rating ([19]; 62 g ai/ha): 65; Morningglory plant response rating ([19]; 125 g ai/ha): 55
CCCC(=O)c1c(Oc2ncc(Cl)cn2)cccc1C(F)(F)F [Compound 136]	35	60	45	80	10	10	20	40	80	30	100	50	30	20	100	100	55	65	75	80	Ryegrass, Italian plant response rating (0 to 100 scale) [5, 21]: 70; Wheat plant response rating (0 to 100 scale) [6, 21]: 20; Ragweed plant response rating (0 to 100 scale) [7, 21]: 60; Galium plant response rating (0 to 100 scale) [8, 21]: 100; Kochia plant response rating (0 to 100 scale) [9, 21]: 100; Barnyardgrass plant response rating (0 to 100 scale) [10]: 80; Pigweed plant response rating (0 to 100 scale) [11, 21]: 100; Blackgrass plant response rating (0 to 100 scale) [12, 21]: 100; Foxtail, Giant plant response rating (0 to 100 scale) [13, 21]: 90; Corn plant response rating (0 to 100 scale) [14, 21]: 50; Kochia plant response rating [15, 23]: 100; Pigweed plant response rating [16, 23]: 100; Plant response rating, Kochia ([18]; 16 g ai/ha, scale of 0 to 100): 80; Plant response rating, Kochia ([18]; 31 g ai/ha, scale 0 to 100): 80; Kochia plant response rating ([18]; 62 g ai/ha): 85; Kochia plant response rating ([18]; 125 g ai/ha): 90; Plant response rating, Morningglory ([19]; 16 g ai/ha, scale of 0 to 100): 10; Plant response rating, Morningglory ([19]; 31 g ai/ha, scale 0 to 100): 15; Morningglory plant response rating ([19]; 62 g ai/ha): 20; Morningglory plant response rating ([19]; 125 g ai/ha): 35
FC(F)(F)CCCCc1c(Cl)cccc1Oc1ncc(Cl)cn1 [Compound 137]	50	95	75	95	30	10	40	100	100	60	100	30	60	10	70	100	70	55	90	100	Ryegrass, Italian plant response rating [5, 24]: 10; Wheat plant response rating [6, 24]: 0; Ragweed plant response rating [7, 24]: 10; Galium plant response rating [8, 24]: 40; Kochia plant response rating [9, 24]: 90; Barnyardgrass plant response rating ([10]; 31 g ai/ha): 20; Pigweed plant response rating [11, 24]: 80; Blackgrass plant response rating [12, 24]: 10; Foxtail, Giant plant response rating [13, 24]: 10; Corn plant response rating [14, 24]: 10; Plant response rating, Kochia [15, 25]: 0; Plant response rating, Pigweed [16, 25]: 10; Plant response rating, Kochia ([18]; 16 g ai/ha, scale of 0 to 100): 85; Plant response rating, Kochia ([18]; 31 g ai/ha, scale 0 to 100): 90; Kochia plant response rating ([18]; 62 g ai/ha): 98; Kochia plant response rating ([18]; 125 g ai/ha): 98; Plant response rating, Morningglory ([19]; 16 g ai/ha, scale of 0 to 100): 10; Plant response rating, Morningglory ([19]; 31 g ai/ha, scale 0 to 100): 15; Morningglory plant response rating ([19]; 62 g ai/ha): 20; Morningglory plant response rating ([19]; 125 g ai/ha): 20
FC(F)(F)CCCCc1c(Br)cccc1Oc1ncc(Cl)cn1 [Compound 138]	45	100	50	85	100	40	60	100	100	90	100	90	90	60	100	100	75	85	100	100	Ryegrass, Italian plant response rating [5, 24]: 30; Wheat plant response rating [6, 24]: 20; Ragweed plant response rating [7, 24]: 30; Galium plant response rating [8, 24]: 70; Kochia plant response rating [9, 24]: 90; Barnyardgrass plant response rating ([10]; 31 g ai/ha): 90; Pigweed plant response rating [11, 24]: 100; Blackgrass plant response rating [12, 24]: 40; Foxtail, Giant plant response rating [13, 24]: 90; Corn plant response rating [14, 24]: 30; Plant response rating, Kochia [15, 25]: 50; Plant response rating, Pigweed [16, 25]: 80; Plant response rating, Kochia ([18]; 16 g ai/ha, scale of 0 to 100): 75; Plant response rating, Kochia ([18]; 31 g ai/ha, scale 0 to 100): 85; Kochia plant response rating ([18]; 62 g ai/ha): 95; Kochia plant response rating ([18]; 125 g ai/ha): 98; Plant response rating, Morningglory ([19]; 16 g ai/ha, scale of 0 to 100): 10; Plant response rating, Morningglory ([19]; 31 g ai/ha, scale 0 to 100): 55; Morningglory plant response rating ([19]; 62 g ai/ha): 65; Morningglory plant response rating ([19]; 125 g ai/ha): 65
